ChEMBL document CHEMBL5136963 (RSC Med Chem, 2021)
pKi: −log10 of the molar value. Calls of active or inactive are those of the source. The calls are words filed in the database; no cut-off is given here.

Key:
[1] = biological target: Sodium-dependent serotonin transporter (Rattus norvegicus, UniProt P31652); assay: Displacement of [3H]-citalopram from SERT in Sprague-Dawley rat brainstem incubated for 60 mins by radioligand binding assay; type: tissue-based
[2] = biological target: Sodium-dependent dopamine transporter (Rattus norvegicus, UniProt P23977); assay: Displacement of [3H]-WIN 3542875 from DAT in Sprague-Dawley rat brain striatum incubated for 120 mins by radioligand binding assay; type: tissue-based
[3] = biological target: Norepinephrine transporter (Rattus norvegicus, UniProt Q9WTR4); assay: Displacement of [3H]-nisoxetine from NET in Sprague-Dawley rat brain prefrontal cortex incubated for 180 mins by radioligand binding assay; type: tissue-based
Rattus norvegicus [4] = species: Rattus norvegicus; assay: Selectivity index, ratio of Ki for Displacement of [3H]-WIN 3542875 from DAT in Sprague-Dawley rat brain striatum to Ki for Displacement of [3H]-nisoxetine from NET in Sprague-Dawley rat brain prefrontal cortex
[5] = biological target: Sodium-dependent noradrenaline transporter (Homo sapiens) (UniProt P23975); assay: Binding affinity to YFP-tagged human NET expressed in HEK293 cells assessed as fluorescence increase at plasma membrane at 10 nM incubated for 1 to 20 mins by laser scanning microscopy; details: time 1-20 min, TDE = time-dependent effect
[6] = biological target: Sodium-dependent noradrenaline transporter (Homo sapiens) (UniProt P23975); assay: Binding affinity to human NET expressed in HEK293 cells assessed as fluorescence increase at plasma membrane at 1 to 10 nM incubated for 10 mins by laser scanning microscopy; details: dose 1-10 nM, DDE = dose-dependent effect
[7] = biological target: Sodium-dependent serotonin transporter (Homo sapiens) (UniProt P31645); assay: Binding affinity to human SERT expressed in HEK293 cells at 10 nM incubated for 20 mins by laser scanning microscopy; type: cell-based
Rattus norvegicus [8] = species: Rattus norvegicus; assay: Selectivity index, ratio of Ki for displacement of [3H]-citalopram from SERT in Sprague-Dawley rat brainstem to Ki for Displacement of [3H]-nisoxetine from NET in Sprague-Dawley rat brain prefrontal cortex

Chain of Norepinephrine transporter (Q9WTR4 whole entry): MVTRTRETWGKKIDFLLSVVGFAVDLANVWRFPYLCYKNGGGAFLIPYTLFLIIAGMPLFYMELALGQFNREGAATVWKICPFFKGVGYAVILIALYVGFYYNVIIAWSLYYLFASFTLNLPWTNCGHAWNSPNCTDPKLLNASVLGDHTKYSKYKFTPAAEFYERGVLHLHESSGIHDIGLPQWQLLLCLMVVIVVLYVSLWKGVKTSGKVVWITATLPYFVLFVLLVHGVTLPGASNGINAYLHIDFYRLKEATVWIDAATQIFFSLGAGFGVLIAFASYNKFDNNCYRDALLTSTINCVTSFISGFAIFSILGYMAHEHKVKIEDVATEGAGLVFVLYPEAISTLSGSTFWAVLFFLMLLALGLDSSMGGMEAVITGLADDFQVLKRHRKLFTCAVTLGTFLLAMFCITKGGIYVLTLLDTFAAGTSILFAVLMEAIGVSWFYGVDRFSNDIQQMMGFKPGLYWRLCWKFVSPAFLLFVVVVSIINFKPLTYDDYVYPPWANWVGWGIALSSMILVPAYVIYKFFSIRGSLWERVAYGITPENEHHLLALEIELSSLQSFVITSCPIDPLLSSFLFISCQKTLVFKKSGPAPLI
Chain of Sodium-dependent serotonin transporter (P31652 whole entry): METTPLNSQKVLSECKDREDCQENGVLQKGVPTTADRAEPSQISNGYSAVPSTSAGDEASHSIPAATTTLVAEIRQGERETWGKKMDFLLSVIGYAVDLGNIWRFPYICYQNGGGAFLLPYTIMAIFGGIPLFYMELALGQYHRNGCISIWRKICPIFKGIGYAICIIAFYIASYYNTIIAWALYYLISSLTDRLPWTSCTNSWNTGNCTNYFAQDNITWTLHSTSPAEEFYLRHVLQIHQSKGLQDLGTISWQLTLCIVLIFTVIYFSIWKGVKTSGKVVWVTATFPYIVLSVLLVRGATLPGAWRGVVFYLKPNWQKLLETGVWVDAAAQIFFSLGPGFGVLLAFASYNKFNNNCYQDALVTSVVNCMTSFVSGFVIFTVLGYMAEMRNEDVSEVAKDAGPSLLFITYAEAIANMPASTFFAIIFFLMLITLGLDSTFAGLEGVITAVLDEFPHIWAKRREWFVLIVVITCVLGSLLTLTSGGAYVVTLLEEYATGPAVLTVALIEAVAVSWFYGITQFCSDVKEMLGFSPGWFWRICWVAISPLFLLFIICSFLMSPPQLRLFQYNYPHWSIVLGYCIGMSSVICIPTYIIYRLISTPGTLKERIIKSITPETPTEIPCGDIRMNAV
Chain of Sodium-dependent dopamine transporter (P23977 whole entry): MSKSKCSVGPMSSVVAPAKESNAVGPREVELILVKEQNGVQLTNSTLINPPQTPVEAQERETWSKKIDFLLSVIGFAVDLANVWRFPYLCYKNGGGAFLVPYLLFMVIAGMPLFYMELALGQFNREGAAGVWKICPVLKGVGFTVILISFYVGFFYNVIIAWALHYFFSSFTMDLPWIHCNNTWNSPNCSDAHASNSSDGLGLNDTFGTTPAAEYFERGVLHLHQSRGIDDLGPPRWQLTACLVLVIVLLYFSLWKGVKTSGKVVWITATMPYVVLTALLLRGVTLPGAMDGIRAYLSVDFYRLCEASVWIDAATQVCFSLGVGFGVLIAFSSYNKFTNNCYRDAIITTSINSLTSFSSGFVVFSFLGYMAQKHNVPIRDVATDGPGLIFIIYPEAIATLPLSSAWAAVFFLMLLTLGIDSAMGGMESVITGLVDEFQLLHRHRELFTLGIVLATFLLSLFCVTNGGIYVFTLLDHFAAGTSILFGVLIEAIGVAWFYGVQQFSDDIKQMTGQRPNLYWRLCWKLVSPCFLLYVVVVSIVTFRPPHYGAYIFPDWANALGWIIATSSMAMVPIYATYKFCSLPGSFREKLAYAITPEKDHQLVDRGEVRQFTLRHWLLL
Chain of Sodium-dependent noradrenaline transporter (Homo sapiens) (P23975 whole entry): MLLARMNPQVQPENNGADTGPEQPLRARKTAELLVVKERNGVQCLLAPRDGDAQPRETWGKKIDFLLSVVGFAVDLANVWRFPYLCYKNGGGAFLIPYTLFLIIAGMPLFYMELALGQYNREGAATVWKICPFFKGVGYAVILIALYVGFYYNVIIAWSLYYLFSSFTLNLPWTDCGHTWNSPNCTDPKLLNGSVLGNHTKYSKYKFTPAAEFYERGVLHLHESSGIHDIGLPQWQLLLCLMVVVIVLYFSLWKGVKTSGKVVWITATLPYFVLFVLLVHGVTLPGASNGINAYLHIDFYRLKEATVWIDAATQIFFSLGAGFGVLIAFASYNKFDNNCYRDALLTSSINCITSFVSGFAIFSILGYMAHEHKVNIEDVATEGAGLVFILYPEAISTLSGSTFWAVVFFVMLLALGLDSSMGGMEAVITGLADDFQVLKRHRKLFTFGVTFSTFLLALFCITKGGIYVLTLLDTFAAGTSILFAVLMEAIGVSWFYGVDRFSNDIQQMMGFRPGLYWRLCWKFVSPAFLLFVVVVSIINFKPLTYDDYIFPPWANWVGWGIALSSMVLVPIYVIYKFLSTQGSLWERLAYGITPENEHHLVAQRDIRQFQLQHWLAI
Chain of Sodium-dependent serotonin transporter (Homo sapiens) (P31645 whole entry, looked up): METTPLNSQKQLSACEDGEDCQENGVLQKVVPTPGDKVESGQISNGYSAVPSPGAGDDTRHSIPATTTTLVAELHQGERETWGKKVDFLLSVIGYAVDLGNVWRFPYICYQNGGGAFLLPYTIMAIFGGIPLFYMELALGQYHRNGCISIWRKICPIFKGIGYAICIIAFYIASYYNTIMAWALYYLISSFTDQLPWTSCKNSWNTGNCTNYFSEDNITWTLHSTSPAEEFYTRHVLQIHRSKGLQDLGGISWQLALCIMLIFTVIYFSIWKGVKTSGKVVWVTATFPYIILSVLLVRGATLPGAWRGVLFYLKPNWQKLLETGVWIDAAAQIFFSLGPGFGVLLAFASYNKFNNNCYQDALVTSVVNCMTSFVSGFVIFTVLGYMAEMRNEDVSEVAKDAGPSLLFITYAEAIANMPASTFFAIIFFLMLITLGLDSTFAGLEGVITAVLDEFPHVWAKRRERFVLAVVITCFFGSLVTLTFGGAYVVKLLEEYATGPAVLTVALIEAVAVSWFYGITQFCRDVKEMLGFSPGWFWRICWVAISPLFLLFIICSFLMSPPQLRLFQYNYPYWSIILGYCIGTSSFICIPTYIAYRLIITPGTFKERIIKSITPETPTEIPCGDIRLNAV

pKi [1] | pKi [2] | pKi [3] | Ratio Ki (Rattus norvegicus [4]) | Activity [5] | Activity [6] | Activity [7] | Ratio Ki (Rattus norvegicus [8]) | Compound
5.94 | 6.02 | < 5.00 | – | – | – | – | – | CCN(CC)c1ccc2c(-c3ccc(S(=O)(=O)NCCCCCC(=O)NCc4ccc5c(c4)C(C)(C)OC5(CCCNC)c4ccccc4)cc3S(=O)(=O)[O-])c3ccc(=[N+](CC)CC)cc-3oc2c1 (stereo not given)
6.10 | < 5.00 | 8.35 | – | – | – | – | – | CNCCCC1(c2ccccc2)OC(C)(C)c2ccccc21 (stereo not given) [TALOPRAM]
6.11 | 5.81 | 7.37 | 36 | Tde | Dde | Active | 18 | CCN(CC)c1ccc2c(-c3ccc(S(=O)(=O)NCCCCCC(=O)NCc4cccc(C(CCNC)Oc5ccccc5OC)c4)cc3S(=O)(=O)[O-])c3ccc(=[N+](CC)CC)cc-3oc2c1 (stereo not given)
< 5.00 | 5.31 | < 5.00 | – | – | – | – | – | CCN(CC)c1ccc2c(-c3ccc(S(=O)(=O)NCCCCCC(=O)NCCNCCCC4(c5ccccc5)OC(C)(C)c5ccccc54)cc3S(=O)(=O)[O-])c3ccc(=[N+](CC)CC)cc-3oc2c1 (stereo not given)

Compound | pKi [1] | pKi [2] | pKi [3] | Ratio Ki (Rattus norvegicus [4]) | Activity [5] | Activity [6] | Activity [7] | Ratio Ki (Rattus norvegicus [8])
CCN(CC)c1ccc2c(-c3ccc(S(=O)(=O)NCCCCCC(=O)NCCN4C5CCC4[C@@H](C(=O)OC)[C@@H](c4ccc(Cl)c(Cl)c4)C5)cc3S(=O)(=O)[O-])c3ccc(=[N+](CC)CC)cc-3oc2c1 (stereo not given in full) | 7.80 | 7.77 | 7.10 | – | – | – | – | –
